# Source: ChEMBL document CHEMBL3875144, “Novel fluorinated pyrrolomycins as potent anti-staphylococcal biofilm agents: Design, synthesis, pharmacokinetics and antibacterial activities” (Eur J Med Chem, 2016)
# The source made the active and inactive calls. No cut-off for these calls is given here.
# Legend:
# [1] = system: Staphylococcus aureus subsp. aureus USA300; experiment: Antibiofilm activity against methicillin-resistant Staphylococcus aureus USA300 JE2 assessed as disruption of preformed biofilms at 8 ug/ml within 5 days; type: functional
# [2] = Selectivity index, ratio of IC50 for cytotoxicity against human HeLa cells to MIC for antibacterial activity against methicillin-resistant Staphylococcus aureus USA300 JE2; type: toxicity, cell-based; settings: read-out: Selectivity Index
# [3] = Plasma concentration in Balc/c mouse at 1 mg/kg, iv up to 72 hrs by LC-MS/MS method; type: ADME, organism-based
# [4] = Antibacterial activity against methicillin-resistant Staphylococcus aureus USA300 JE2 incubated for 20 to 24 hrs by broth microdilution assay; type: functional, Staphylococcus aureus subsp. aureus USA300
# [5] = system: Staphylococcus aureus subsp. aureus USA300; experiment: Antibiofilm activity against methicillin-resistant Staphylococcus aureus USA300 JE2 at 8 ug/ml measured at 48 hrs post dose relative to control; type: functional
# [6] = Cytotoxicity against human HeLa cells assessed as decrease in cell viability measured after 24 hrs by MTS assay; type: toxicity, cell-based
# [7] = Tmax in Balc/c mouse at 10 mg/kg administered via oral gavage by LC-MS/MS method; type: ADME, organism-based; settings: in vivo
# [8] = Bactericidal activity against methicillin-resistant Staphylococcus aureus USA300 JE2 incubated up to 24 hrs; type: functional, Staphylococcus aureus subsp. aureus USA300; settings: JE2, 24 h
# [9] = Plasma concentration in Balc/c mouse at 10 mg/kg administered via oral gavage up to 72 hrs by LC-MS/MS method; type: ADME, organism-based
# [10] = system: Staphylococcus aureus subsp. aureus USA300; experiment: Antibiofilm activity against methicillin-resistant Staphylococcus aureus USA300 JE2 at 8 ug/ml measured at 24 hrs post dose relative to control; type: functional
# [11] = system: Staphylococcus aureus subsp. aureus USA300; experiment: Bactericidal activity against methicillin-resistant Staphylococcus aureus USA300 JE2 at 8 ug/ml incubated up to 24 hrs relative to control; type: functional
# [12] = system: Staphylococcus aureus subsp. aureus USA300; experiment: Antibiofilm activity against methicillin-resistant Staphylococcus aureus USA300 JE2 at 32 ug/ml measured at 24 hrs post dose relative to control; type: functional
# [13] = system: Staphylococcus aureus subsp. aureus USA300; experiment: Antibiofilm activity against methicillin-resistant Staphylococcus aureus USA300 JE2 at 32 ug/ml measured at 48 hrs post dose relative to control; type: functional
SMILES,selectivity ratio [2],MIC [4],IC50 at 24 h [6],other results
O=C(c1cc(Br)c(F)[nH]1)c1cc(Cl)cc(Cl)c1O,> 484,0.073 µg/mL,> 35.3 µM,Activity [1]: Active; concentration at 72 h [3]: ≥ 0.8 ng/mL; Activity [5]: 97%; Tmax [7]: 15 min; MBC [8]: 4 µg/mL; concentration at 72 h [9]: ≥ 0.8 ng/mL; Activity [10]: 84%
O=C(c1ccc[nH]1)c1cc(Cl)cc(Cl)c1O,–,> 4 µg/mL,–,–
O=C(c1cc(Br)c(Br)[nH]1)c1cc(Cl)cc(Cl)c1O,> 567,0.073 µg/mL,> 41.4 µM,MBC [8]: 8 µg/mL; Activity [11]: 92.5%
COc1c(F)cc(F)cc1C(=O)c1c(Br)c(Br)c(Br)n1C,–,> 4 µg/mL,–,–
O=C(c1ccc[nH]1)c1cc(F)cc(F)c1O,–,> 4 µg/mL,–,–
COc1c(F)cc(F)cc1C(=O)c1[nH]c(Br)c(Br)c1Br,–,3 µg/mL,–,–
COc1c(F)cc(F)cc1C(=O)c1ccc[nH]1,–,> 4 µg/mL,–,–
O=C(c1cc(Br)c[nH]1)c1cc(Cl)cc(Cl)c1O,–,> 4 µg/mL,–,–
O=C(c1cc(Cl)cc(Cl)c1O)c1[nH]c(F)c(Br)c1Br,> 229,0.19 µg/mL,> 43.2 µM,–
O=C(c1cc(F)cc(F)c1O)c1[nH]c(Br)c(Br)c1Br,> 275,0.17 µg/mL,> 46 µM,–
CN[C@H](CC(C)C)C(=O)N[C@H]1C(=O)N[C@@H](CC(N)=O)C(=O)N[C@H]2C(=O)N[C@H]3C(=O)N[C@H](C(=O)N[C@H](C(=O)O)c4cc(O)cc(O)c4-c4cc3ccc4O)[C@H](O)c3ccc(c(Cl)c3)Oc3cc2cc(c3O[C@@H]2O[C@H](CO)[C@@H](O)[C@H](O)[C@H]2O[C@H]2C[C@](C)(N)[C@H](O)[C@H](C)O2)Oc2ccc(cc2Cl)[C@H]1O [VANCOMYCIN],–,2 µg/mL,–,Activity [12]: 11%; Activity [13]: 39%; MBC [8]: 8 µg/mL
Cn1c(Br)c(Br)c(Br)c1C(=O)c1cc(F)cc(F)c1O,–,> 4 µg/mL,–,–
O=C(c1ccccc1O)c1[nH]c(Cl)c(Cl)c1-n1c(C(=O)c2ccc(Cl)cc2O)cc(Cl)c1Cl,> 524,0.078 µg/mL,> 40.9 µM,–
O=C(c1ccccc1O)c1[nH]c(Cl)c(Cl)c1-n1c(C(=O)c2cc(F)ccc2O)cc(Cl)c1Cl,> 280,0.19 µg/mL,> 52.8 µM,–
